The source of these data is patent US8173808B2, “Substituted naphthalenyl-pyrimidine compounds” (ArQule, Inc., priority 2009, dated 2012).

In one experiment the test system is DLD-1. The experiment can be described thus: MTS assay, DLD-1. Type of experiment: cell-based. The note with it: Homo sapiens, 72 hours, 1 Percent FBS. Here is the method:
(§1) Cells were maintained at 37° C., 5% CO2 in DMEM media supplemented with 1% fetal bovine serum, penicillin/streptomycin and fungizone (Invitrogen). Cells were seeded into 96-well tissue culture plates at 3000 per well and cultured at 37° C. for 18 hours. Test compounds were dissolved and diluted to 300× in DMSO then diluted 1:40 in DMEM. Cells were incubated with test compounds for 72 hours followed by incubation with tetrazolium compound (3-(4,5-dimethylthiazol-2-yl)-5-(3-carboxymethoxyphenyl)-2-(4-sulfophenyl)-2H-tetrazolium, inner salt; MTS) and the electron coupling reagent, phenazine methosulfate (PMS) for 4 hours. […] The ability of compounds to inhibit cell growth in this assay is correlated with the reduction of dehydrogenase enzyme activity found in metabolically active cells. The measurement of the absorbance of the formazan was assessed using a Victor (Perkin Elmer) microplate reader at 492 nm. The calculated IC50 value is the concentration of the test compound that causes a 50% decrease in the absorbance.
(In general: Tetrazolium dyes change colour on reduction, which living cells bring about.)

The subject of another experiment is MDA-MB-231. The experiment can be described thus: MTS assay, MDA-MB-231. It is filed as cell-based. The note with it: Homo sapiens, 72 hours, 1 Percent FBS. Here is the method:
as §1

As for `COc1ccc2cc(-c3ccnc(NC4CCN(C)CC4)n3)cc(N3CCOCC3)c2c1` [Compound 7, 4-(6-methoxy-4-morpholin-4-yl-2-naphthyl)-N-(1-methylpiperidin-4-yl)pyrimidin-2-amine], the inhibition – broadly, the change of the read-out against control, counted positive when it falls – at 10 µM was found to be 68% in the experiment with DLD-1 and 62% in the experiment with MDA-MB-231. On the same counts, the results for `COc1ccc2cc(-c3ccnc(NCc4ccc(OC)c(OC)c4)n3)cc(N3CCOCC3)c2c1` [Compound 9, N-(3,4-dimethoxybenzyl)-4-(6-methoxy-4-morpholin-4-yl-2-naphthyl)pyrimidin-2-amine] are 99% and 82%. Turning to `CCN1CCCC(Nc2nccc(-c3cc(N4CCOCC4)c4cc(OC)ccc4c3)n2)C1` (stereo not shown) [Compound 14, N-(1-ethylpiperidin-3-yl)-4-(6-methoxy-4-morpholin-4-yl-2-naphthyl)pyrimidin-2-amine], the inhibition at 10 µM with DLD-1 came to 98%; in the experiment on MDA-MB-231 it was 99%.

In the case of `COc1ccc2cc(-c3ccnc(NCc4cncn4C)n3)cc(N3CCOCC3)c2c1` [Compound 16, 4-(6-methoxy-4-morpholin-4-yl-2-naphthyl)-N-[(1-methyl-1H-imidazol-5-yl)methyl]pyrimidin-2-amine], the inhibition at 10 µM amounted to 98% in the experiment with DLD-1 and 96% in the experiment with MDA-MB-231. In the case of `COc1ccc2cc(-c3ccnc(NCCc4ccc(OC)c(OC)c4)n3)cc(N3CCOCC3)c2c1` [Compound 18, N-[2-(3,4-dimethoxyphenyl)ethyl]-4-(6-methoxy-4-morpholin-4-yl-2-naphthyl)pyrimidin-2-amine], the inhibition at 10 µM with DLD-1 came out at 88%; in the experiment on MDA-MB-231 it was 31%. Taken in the same sequence, the figures for `COc1ccc2cc(-c3ccnc(NCCc4cccnc4)n3)cc(N3CCOCC3)c2c1` [Compound 21, 4-(6-methoxy-4-morpholin-4-yl-2-naphthyl)-N-(2-pyridin-3-ylethyl)pyrimidin-2-amine] were 97% and 99%.

For the compound `COCCNc1nccc(-c2cc(N3CCOCC3)c3cc(OC)ccc3c2)n1` [Compound 23, N-(2-methoxyethyl)-4-(6-methoxy-4-morpholin-4-yl-2-naphthyl)pyrimidin-2-amine], the inhibition at 10 µM in the experiment with DLD-1 turned out to be 98%; with MDA-MB-231 it was 91%. On to `COc1ccc2cc(-c3ccnc(NC4CCN(Cc5ccccc5)CC4)n3)cc(N3CCOCC3)c2c1` [Compound 24, N-(1-benzylpiperidin-4-yl)-4-(6-methoxy-4-morpholin-4-yl-2-naphthyl)pyrimidin-2-amine], for which the results for the inhibition at 10 µM with DLD-1 and in the experiment with MDA-MB-231 were 97% and 95%, respectively. For `COc1ccc2cc(-c3ccnc(NCc4ccccn4)n3)cc(N3CCOCC3)c2c1` [Compound 25, 4-(6-methoxy-4-morpholin-4-yl-2-naphthyl)-N-(pyridin-2-ylmethyl)pyrimidin-2-amine], the inhibition at 10 µM was 82% in the experiment with DLD-1 and 74% with MDA-MB-231. `COc1ccc2cc(-c3ccnc(NC4CC(C)(C)N(C)C(C)(C)C4)n3)cc(N3CCOCC3)c2c1` [Compound 26, 4-(6-methoxy-4-morpholin-4-yl-2-naphthyl)-N-(1,2,2,6,6-pentamethylpiperidin-4-yl)pyrimidin-2-amine]: the inhibition at 10 µM was 92% in the experiment on DLD-1 and 98% with MDA-MB-231.

`COc1ccc(CNc2nccc(-c3cc(N4CCOCC4)c4cc(OC)ccc4c3)n2)cc1` [Compound 28, N-(4-methoxybenzyl)-4-(6-methoxy-4-morpholin-4-yl-2-naphthyl)pyrimidin-2-amine]: the inhibition at 10 µM in the experiment with DLD-1 was determined as 98%; in the experiment on MDA-MB-231 it was 99%. On the same counts, the results for `COc1ccc2cc(-c3ccnc(NCCN4CCCC4)n3)cc(N3CCOCC3)c2c1` [Compound 29, 4-(6-methoxy-4-morpholin-4-yl-2-naphthyl)-N-(2-pyrrolidin-1-ylethyl)pyrimidin-2-amine] are 81% and 76%. In the case of `COc1ccc2cc(-c3ccnc(NCC(C)(C)CN(C)C)n3)cc(N3CCOCC3)c2c1` [Compound 30, N′-[4-(6-methoxy-4-morpholin-4-yl-2-naphthyl)pyrimidin-2-yl]-N,N,2,2-tetramethylpropane-1,3-diamine], the inhibition at 10 µM amounted to 63% in the experiment with DLD-1 and 78% with MDA-MB-231. For the compound `CCN(CC)CCCN1CCN(CC(=O)Nc2cc(-c3ccnc(NC)n3)cc3ccc(OC)cc23)CC1` [Compound 36, 2-{4-[3-(diethylamino)propyl]piperazin-1-yl}-N-{7-methoxy-3-[2-(methylamino)pyrimidin-4-yl]-1-naphthyl}acetamide], the inhibition at 10 µM turned out to be 87% with DLD-1 and 92% with MDA-MB-231. On the same counts, the results for `CNc1nccc(-c2cc(NC(=O)CN3CCN(CCO)CC3)c3cc(OC)ccc3c2)n1` [Compound 38, 2-[4-(2-hydroxyethyl)piperazin-1-yl]-N-{7-methoxy-3-[2-(methylamino)pyrimidin-4-yl]-1-naphthyl}acetamide] are 98% and 98%. In the case of `CNc1nccc(-c2cc(NC(=O)CN3CCN(c4ccc(C(F)(F)F)cn4)CC3)c3cc(OC)ccc3c2)n1` [Compound 55, N-{7-methoxy-3-[2-(methylamino)pyrimidin-4-yl]-1-naphthyl}-2-{4-[5-(trifluoromethyl)pyridin-2-yl]piperazin-1-yl}acetamide], the inhibition at 10 µM with MDA-MB-231 was determined as 65%. Consider `CNc1nccc(-c2cc(NC(=O)CNc3ccncc3)c3cc(OC)ccc3c2)n1` [Compound 56, N-{7-methoxy-3-[2-(methylamino)pyrimidin-4-yl]-1-naphthyl}-N~2~-pyridin-4-ylglycinamide], for which 10 µM produced 50% inhibition in the experiment on MDA-MB-231. For `CNc1nccc(-c2cc(NC(=O)CNCCCN3CCN(C)CC3)c3cc(OC)ccc3c2)n1` [Compound 69, N-{7-methoxy-3-[2-(methylamino)pyrimidin-4-yl]-1-naphthyl}-N~2~-[3-(4-methylpiperazin-1-yl)propyl]glycinamide], 10 µM produced 40% inhibition in the experiment on MDA-MB-231. Take `CNc1nccc(-c2cc(NC(=O)CN3CCN(c4ccncc4)CC3)c3cc(OC)ccc3c2)n1` [Compound 70, N-{7-methoxy-3-[2-(methylamino)pyrimidin-4-yl]-1-naphthyl}-2-(4-pyridin-4-ylpiperazin-1-yl)acetamide]: in the experiment on MDA-MB-231, the inhibition at 10 µM was found to be 37%. On the same count and under the same terms, as for `CNc1nccc(-c2cc(NC(=O)CN3CCN(CCCN4CCOCC4)CC3)c3cc(OC)ccc3c2)n1` [Compound 77, N-{7-methoxy-3-[2-(methylamino)pyrimidin-4-yl]-1-naphthyl}-2-[4-(3-morpholin-4-ylpropyl)piperazin-1-yl]acetamide], the figure is 41%; as for `COc1ccc2cc(-c3ccnc(NCc4cccc(C(F)(F)F)c4)n3)cc(NC(=O)OC(C)(C)C)c2c1` [Compound 90, tert-butyl [7-methoxy-3-(2-{[3-(trifluoromethyl)benzyl]amino}pyrimidin-4-yl)-1-naphthyl]carbamate], 43%; as for `COc1ccc2cc(-c3ccnc(NCCc4ccc(OC)c(OC)c4)n3)cc(NC(=O)OC(C)(C)C)c2c1` [Compound 95, tert-butyl [3-(2-{[2-(3,4-dimethoxyphenyl)ethyl]amino}pyrimidin-4-yl)-7-methoxy-1-naphthyl]carbamate], 39%.
